Assay results as given in patent US20130065868A1, “ANXIOYTIC MARCGRAVIACEAE COMPOSITIONS CONTAINING BETULINIC ACID, BETULINIC ACID DERIVATIVES, AND METHODS” (UNIVERSITY OF OTTAWA, priority 2002, published 2013).
Read-outs that look alike come from different tables or passages of the source.

Columns and labels:
Sprague-Dawley rats [1] = assay: Elevated plus-maze (EPM) test in rats; format: in vivo, rat; conditions: 1 mg/kg in peanut oil orally (gavage), 45-60 min after treatment, vs peanut oil (FIG. 3)
Procedure: The majority of tests described in the following examples were conducted on adult; male Sprague-Dawley rats (typically weighing ˜300-450 gm) were obtained from Charles River Canada, St. Constant, Quebec. They were individually housed in standard clear Plexiglas cages (24×30×18 cm) and maintained on a 12 hr light/dark cycle (7:00 A.M.-7:00 P.M. light phase) in a temperature and humidity controlled room. Unless indicated otherwise, animals had free access to water and maintained on a restricted diet of 5 pellets a day of Purina Lab Chow. All experimental procedures complied with the guidelines of the Canadian Council on Animal Care and were approved by the Research Ethics Committee at the University of Ottawa. […]
The EPM constitutes of a plus-shaped maze with two enclosed arms (or alleys; 50×10×40 cm) and two open arms (or planks; 50×10 cm), with a 10×10 cm central zone. […] To avoid distractions, the EPM was surrounded by black curtain and the subjects were monitored remotely, using a closed circuit camera mounted above the set-up.
The rats were randomly assigned to each of the drug conditions. […] Behaviours scored included time spent in the open arms of the maze, time spent in the closed arms of the maze, number of entries into the open-arms and number of entries into the closed arm of the maze. […]

Sprague-Dawley rats [2] = assay: Rat social interaction paradigm; format: in vivo; conditions: 0.5 mg/kg i.p.
Source text: The rat social interaction paradigm takes advantage of rats' natural behaviour in novel situations. The more ‘anxious’ the animals are, the less likely they are engage in social interaction with the cohort. Anxiolytic drugs typically increase the amount of time rodents spend socially interacting with one another. (Pile, S. E., (1980). The use of social interaction as a method for detecting anxiolytic activity of chlor-diazepoxide-like drugs. In Current Protocols in Neuroscience (pp. 8.3.3-8.3.4), John-Wiley & Sons).
The social-interaction (SI) test arena constituted of a 60×60 cm white Plexiglas floor, enclosed by 35-cm high walls of the same material. The arena was surrounded by black curtain, and a closed circuit camera was positioned above the setup, to feed live video signals to the experimenter seated in a separate room, for behavioral assessment and recording.
Each rat was placed alone in the SI box for 7.5 min daily for 2 days, in order to familiarize the animals with the test environment. Animals were paired according to their body weights (less than 10 g difference) and each pair was randomly assigned to one of the treatment groups. Rats received either betulinic acid 0.5 mg/kg i.p., betulinic acid methyl ester (methyl betulinate) 0.5 mg/kg i.p., or peanut oil only (control). Drugs were injected (i.p.) 60 min prior to testing. Tests were carried out at three intervals, 1 h, 2.5 h and 4 h after injection. Each pair was tested at the 1-h interval, then new pairs from within the same drug group were formed for the 2.5-h interval and then again at the 4-h interval (new pairs were formed for each test interval, to control for the potential confounding effect partner familiarity). […] The behaviors scored included the amount of time the pairs spent interacting together (sniffing, grooming and chasing) as well as the number of times the animals initiated contact.

[3] = Weight gain over chronic treatment; format: in vivo, rat; conditions: rats, chronic 0.5 mg/kg daily orally (FIG. 12)
COMT = COMT (Homo sapiens, UniProt P21964); assay: MDS Panlabs screen: COMT; format: biochemical; conditions: Catecholamines
Sequence of COMT (P21964 whole entry, species assumed): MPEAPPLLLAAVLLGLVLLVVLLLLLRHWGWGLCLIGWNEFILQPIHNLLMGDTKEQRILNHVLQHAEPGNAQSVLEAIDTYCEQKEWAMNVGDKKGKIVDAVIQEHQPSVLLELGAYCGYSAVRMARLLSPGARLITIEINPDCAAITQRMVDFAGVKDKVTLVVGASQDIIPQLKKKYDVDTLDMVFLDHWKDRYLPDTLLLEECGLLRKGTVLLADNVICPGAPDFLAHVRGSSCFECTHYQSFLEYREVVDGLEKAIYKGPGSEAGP
Procedure: (§1) Tests were conducted by MDS Panlabs to determine whether any of the classical neurotransmitter systems or the peptidergic systems thought to play a role in anxiety are affected by betulinic acid.

DA transporter = DA transporter (Homo sapiens, UniProt Q01959); assay: MDS Panlabs screen: DA transporter; format: binding; conditions: Catecholamines
Sequence of DA transporter (Q01959 whole entry, species assumed): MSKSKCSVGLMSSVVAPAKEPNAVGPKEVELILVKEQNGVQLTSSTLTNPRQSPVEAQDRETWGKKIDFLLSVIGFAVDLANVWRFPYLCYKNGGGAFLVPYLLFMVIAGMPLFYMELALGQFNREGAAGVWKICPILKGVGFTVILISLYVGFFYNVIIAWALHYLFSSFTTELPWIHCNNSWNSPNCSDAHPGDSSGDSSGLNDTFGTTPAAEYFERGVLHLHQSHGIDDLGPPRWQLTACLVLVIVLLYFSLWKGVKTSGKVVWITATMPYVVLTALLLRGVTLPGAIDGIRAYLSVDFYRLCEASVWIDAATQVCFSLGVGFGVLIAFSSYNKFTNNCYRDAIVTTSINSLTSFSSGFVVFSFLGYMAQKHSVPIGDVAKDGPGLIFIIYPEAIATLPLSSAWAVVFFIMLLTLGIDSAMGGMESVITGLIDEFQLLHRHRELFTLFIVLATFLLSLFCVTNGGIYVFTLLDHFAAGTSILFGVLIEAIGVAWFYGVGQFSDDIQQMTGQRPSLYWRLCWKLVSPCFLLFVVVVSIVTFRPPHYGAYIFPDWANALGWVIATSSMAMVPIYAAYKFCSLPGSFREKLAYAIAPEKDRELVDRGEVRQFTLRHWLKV
Procedure: as §1

GABAA, agonist site = assay: MDS Panlabs screen: GABAA, agonist site; format: binding; conditions: Gabaergic
Procedure: as §1

Glutamate non-selective = assay: MDS Panlabs screen: Glutamate non-selective; format: binding; conditions: Gabaergic
Procedure: as §1

5-HT1A = 5-HT1A (Homo sapiens, UniProt P08908); assay: MDS Panlabs screen: 5-HT1A; format: binding; conditions: Serotonin (5-HT)
Sequence of 5-HT1A (P08908 whole entry, species assumed): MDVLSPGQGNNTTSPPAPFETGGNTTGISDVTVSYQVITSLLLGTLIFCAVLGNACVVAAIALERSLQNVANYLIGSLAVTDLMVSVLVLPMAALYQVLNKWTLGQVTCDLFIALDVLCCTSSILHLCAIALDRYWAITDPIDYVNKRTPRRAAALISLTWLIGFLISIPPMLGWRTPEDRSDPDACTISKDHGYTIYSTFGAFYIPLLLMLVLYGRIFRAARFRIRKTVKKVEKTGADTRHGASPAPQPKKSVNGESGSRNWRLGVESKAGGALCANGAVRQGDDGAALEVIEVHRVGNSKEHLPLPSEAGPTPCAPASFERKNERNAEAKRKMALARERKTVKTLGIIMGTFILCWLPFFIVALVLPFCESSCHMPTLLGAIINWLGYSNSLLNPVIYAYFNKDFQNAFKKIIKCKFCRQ
Procedure: as §1

muscarinic non-selective = assay: MDS Panlabs screen: muscarinic non-selective; format: binding; conditions: Acetylcholine
Procedure: as §1

GLP-1 = GLP-1 (Homo sapiens, UniProt P43220); assay: MDS Panlabs screen: GLP-1; format: binding; conditions: Peptides
Sequence of GLP-1 (P43220 24-463): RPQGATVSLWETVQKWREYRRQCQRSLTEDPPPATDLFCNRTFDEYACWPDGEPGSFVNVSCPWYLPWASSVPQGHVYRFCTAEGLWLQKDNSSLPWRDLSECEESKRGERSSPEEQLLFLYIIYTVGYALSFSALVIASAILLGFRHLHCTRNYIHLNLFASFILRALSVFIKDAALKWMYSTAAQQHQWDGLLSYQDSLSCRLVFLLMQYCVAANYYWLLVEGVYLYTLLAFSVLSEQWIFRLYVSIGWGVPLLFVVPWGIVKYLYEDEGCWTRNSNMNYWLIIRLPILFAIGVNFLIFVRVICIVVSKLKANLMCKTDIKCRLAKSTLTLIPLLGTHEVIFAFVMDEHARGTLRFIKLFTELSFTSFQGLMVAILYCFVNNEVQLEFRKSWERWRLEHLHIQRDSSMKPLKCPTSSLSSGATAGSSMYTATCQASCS
Procedure: as §1

somatostatin = assay: MDS Panlabs screen: somatostatin; format: binding; conditions: Peptides
Procedure: as §1

tachykinin NK2 = tachykinin NK2 (Homo sapiens, UniProt P21452); assay: MDS Panlabs screen: tachykinin NK2; format: binding; conditions: Peptides
Sequence of tachykinin NK2 (P21452 whole entry): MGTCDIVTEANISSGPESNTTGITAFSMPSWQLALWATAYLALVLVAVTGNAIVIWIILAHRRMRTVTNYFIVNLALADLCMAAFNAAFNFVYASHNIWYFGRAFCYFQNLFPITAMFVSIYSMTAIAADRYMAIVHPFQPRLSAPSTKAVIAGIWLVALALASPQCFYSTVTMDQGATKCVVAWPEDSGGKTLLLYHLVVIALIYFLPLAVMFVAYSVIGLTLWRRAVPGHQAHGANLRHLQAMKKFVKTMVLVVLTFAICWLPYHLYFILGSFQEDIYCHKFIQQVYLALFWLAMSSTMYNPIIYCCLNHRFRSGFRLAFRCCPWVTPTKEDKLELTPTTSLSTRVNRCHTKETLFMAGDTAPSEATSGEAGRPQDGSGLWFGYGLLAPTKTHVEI
Procedure: as §1

interleukin IL-1α = assay: MDS Panlabs screen: interleukin IL-1α; format: binding; conditions: Peptides
Procedure: as §1

[4] = cited from earlier work

## C=C(C)[C@@H]1CC[C@]2(C(=O)O)CC[C@]3(C)C(CC[C@@H]4[C@@]5(C)CC[C@H](O)C(C)(C)[C@@H]5CC[C@]43C)[C@@H]12 (stereo partly shown) [betulinic acid, Betulinic acid]
Sprague-Dawley rats [1]
  time spent on the open arms of the plus-maze: spent significantly more time on the open arms of the plus-maze
Sprague-Dawley rats [2]
  frequency of initiated contact: not significant
Sprague-Dawley rats [2]; data collapsed across 1 h, 2.5 h and 4 h (FIG. 8)
  amount of social interaction (interaction time) compared to the control group: significantly increased the amount of social interaction
[3]
  effect of chronic drug treatment on weight gain: did not seem to affect weight gain in a significant manner
COMT
  affected by betulinic acid: none of the following neurotransmitters or proteins were affected
DA transporter
  affected by betulinic acid: none of the following neurotransmitters or proteins were affected
GABAA, agonist site
  affected by betulinic acid: none of the following neurotransmitters or proteins were affected
Glutamate non-selective
  affected by betulinic acid: none of the following neurotransmitters or proteins were affected
5-HT1A
  affected by betulinic acid: none of the following neurotransmitters or proteins were affected
Muscarinic non-selective
  affected by betulinic acid: none of the following neurotransmitters or proteins were affected
GLP-1
  affected by betulinic acid: none of the following neurotransmitters or proteins were affected
somatostatin
  affected by betulinic acid: none of the following neurotransmitters or proteins were affected
Tachykinin NK2
  affected by betulinic acid: none of the following neurotransmitters or proteins were affected
Interleukin IL-1α
  affected by betulinic acid: none of the following neurotransmitters or proteins were affected
[4]; 200 mg/kg
  toxicity in a Hippocratic screen: non-toxic
[4]; 400 mg/kg
  toxicity in a Hippocratic screen: non-toxic
